Molecular target: human CXCR3A (Homo sapiens (Human), UniProt P49682)
Assay: FLIPR assay (inhibition of CXCL10-induced calcium signal)
Assay type: cell-based
Conditions: engineered CHO-K1 cells expressing human CXCR3A coupled to Galpha(16); Fluo-4-AM; CXCL10 agonist 20 nM; mean values where determined several times
Method in brief: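 CHO-K1 cells expressing human CXCR3A coupled to Gα16 were loaded with Fluo-4-AM for 1 h in HBSS/20 mM Hepes pH 7.4 with probenecid. Compound was added, then CXCL10 (20 nM as dispensed). Baseline-subtracted peak fluorescence gave inhibition curves and IC50, averaged over repeats.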

Sequence of human CXCR3A (P49682 whole entry): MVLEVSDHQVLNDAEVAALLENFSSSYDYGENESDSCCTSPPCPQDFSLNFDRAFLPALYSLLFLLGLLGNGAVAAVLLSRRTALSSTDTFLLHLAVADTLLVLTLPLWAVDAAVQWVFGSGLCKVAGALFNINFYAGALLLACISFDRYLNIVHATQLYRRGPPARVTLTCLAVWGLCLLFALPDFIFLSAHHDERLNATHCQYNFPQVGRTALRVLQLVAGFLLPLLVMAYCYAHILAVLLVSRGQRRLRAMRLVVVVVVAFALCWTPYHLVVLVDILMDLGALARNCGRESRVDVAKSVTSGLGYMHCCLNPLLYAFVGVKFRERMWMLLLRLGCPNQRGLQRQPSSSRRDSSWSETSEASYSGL

Row | SMILES | IC50
1 | Cc1ccc(N2CCc3cccc(N4CCN(C(=O)Cn5cnc6cccnc65)[C@H](C)C4)c3C2)cn1 [Example 92, 2-Imidazo[4,5-b]pyridin-3-yl-1-{(R)-2-methyl-4-[2-(6-methyl-pyridin-3-yl)-1,2,3,4-tetrahydro-isoquinolin-8-yl]-piperazin-1-yl}-ethanone] | 0.97 nM
2 | C[C@@H]1CN(c2cccc3c2CN(c2ccc(Cl)cc2)CC3)CCN1C(=O)Cn1cnc2cccnc21 [Example 93, 1-{(R)-4-[2-(4-Chloro-phenyl)-1,2,3,4-tetrahydro-isoquinolin-8-yl]-2-methyl-piperazin-1-yl}-2-imidazo[4,5-b]pyridin-3-yl-ethanone] | 7.55 nM
3 | COc1ccccc1N1CCc2cccc(N3CCN(C(=O)Cn4cnc5cccnc54)[C@H](C)C3)c2C1 [Example 94, 2-Imidazo[4,5-b]pyridin-3-yl-1-{(R)-4-[2-(2-methoxy-phenyl)-1,2,3,4-tetrahydro-isoquinolin-8-yl]-2-methyl-piperazin-1-yl}-ethanone] | 61.9 nM
4 | C[C@@H]1CN(c2cccc3c2CN(c2ccc(C#N)cc2)CC3)CCN1C(=O)Cn1cnc2cccnc21 [Example 95, 4-{8-[(R)-4-(2-Imidazo[4,5-b]pyridin-3-yl-acetyl)-3-methyl-piperazin-1-yl]-3,4-dihydro-1H-isoquinolin-2-yl}-benzonitrile] | 7.8 nM
5 | C[C@@H]1CN(c2cccc3c2CN(c2ccc(C(F)(F)F)cc2)CC3)CCN1C(=O)Cn1cnc2cccnc21 [Example 96, 2-Imidazo[4,5-b]pyridin-3-yl-1-{(R)-2-methyl-4-[2-(4-trifluoromethyl-phenyl)-1,2,3,4-tetrahydro-isoquinolin-8-yl]-piperazin-1-yl}-ethanone] | 25.5 nM
6 | COc1cccc(N2CCc3cccc(N4CCN(C(=O)Cn5cnc6cccnc65)[C@H](C)C4)c3C2)c1 [Example 97, 2-Imidazo[4,5-b]pyridin-3-yl-1-{(R)-4-[2-(3-methoxy-phenyl)-1,2,3,4-tetrahydro-isoquinolin-8-yl]-2-methyl-piperazin-1-yl}-ethanone] | 4.38 nM
7 | C[C@@H]1CN(c2cccc3c2CN(c2ccc(OC(F)(F)F)cc2)CC3)CCN1C(=O)Cn1cnc2cccnc21 [Example 98, 2-Imidazo[4,5-b]pyridin-3-yl-1-{(R)-2-methyl-4-[2-(4-trifluoromethoxy-phenyl)-1,2,3,4-tetrahydro-isoquinolin-8-yl]-piperazin-1-yl}-ethanone] | 11.6 nM
8 | C[C@@H]1CN(c2cccc3c2CN(c2ccc(F)cc2)CC3)CCN1C(=O)Cn1cnc2cccnc21 [Example 99, 1-{(R)-4-[2-(4-Fluoro-phenyl)-1,2,3,4-tetrahydro-isoquinolin-8-yl]-2-methyl-piperazin-1-yl}-2-imidazo[4,5-b]pyridin-3-yl-ethanone] | 8.3 nM
9 | C[C@@H]1CN(c2cccc3c2CN(c2ccc(C(F)(F)F)nc2)CC3)CCN1C(=O)Cn1cnc2cccnc21 [Example 100, 2-Imidazo[4,5-b]pyridin-3-yl-1-{(R)-2-methyl-4-[2-(6-trifluoromethyl-pyridin-3-yl)-1,2,3,4-tetrahydro-isoquinolin-8-yl]-piperazin-1-yl}-ethanone] | 1.25 nM
10 | C[C@@H]1CN(c2cccc3c2CN(c2ccccc2)CC3)CCN1C(=O)Cn1cnc2cccnc21 [Example 101, 2-Imidazo[4,5-b]pyridin-3-yl-1-[(R)-2-methyl-4-(2-phenyl-1,2,3,4-tetrahydro-isoquinolin-8-yl)-piperazin-1-yl]-ethanone] | 14.7 nM
11 | C[C@@H]1CN(c2cccc3c2CN(c2ncccn2)CC3)CCN1C(=O)Cn1cnc2cccnc21 [Example 102, 2-Imidazo[4,5-b]pyridin-3-yl-1-[(R)-2-methyl-4-(2-pyrimidin-2-yl-1,2,3,4-tetrahydro-isoquinolin-8-yl)-piperazin-1-yl]-ethanone] | 29.1 nM
12 | C[C@@H]1CN(c2cccc3c2CN(c2ccc(C(F)(F)F)cn2)CC3)CCN1C(=O)Cn1cnc2cccnc21 [Example 103, 2-Imidazo[4,5-b]pyridin-3-yl-1-{(R)-2-methyl-4-[2-(5-trifluoromethyl-pyridin-2-yl)-1,2,3,4-tetrahydro-isoquinolin-8-yl]-piperazin-1-yl}-ethanone] | 20.7 nM

— patent publication US9951063B2, “8-(piperazin-1-yl)-1,2,3,4-tetrahydro-isoquinoline derivatives” (IDORSIA PHARMACEUTICALS LTD, priority 2014, dated 2018)
